Measured values reported in the supplement of paper PMC11061612.

Experiments:
A673 (Ewing's Sarcoma) [1] = assay: Bliss excess, mean over the matrix (fraction); higher = more synergy
How it was run: (§1)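 Bliss excess equals the observed combination effect minus the expected value EA + EB − EA·EB, where EA and EB are the effects of each agent alone. Combination Emax is the second-highest inhibition within the matrix. Inhibition was scaled from CellTiter-Glo 2.0 luminescence, with 0 set by vehicle wells and 1 by blank wells, after 72 hours of two-drug dosing of cells plated in 1536-well plates.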

[2] = test system: BE-13 (T-Lymphoblastic Leukemia); assay: as above
How it was run: as §1

CAL-72 (Osteosarcoma) [3] = assay: as above
How it was run: as §1

[4] = test system: ESS-1 (Other Solid Carcinomas); assay: as above
How it was run: as §1

EW-11 (Ewing's Sarcoma) [5] = assay: as above
How it was run: as §1

GAMG (Glioblastoma) [6] = assay: as above
How it was run: as §1

[7] = test system: HH (T-Cell Non-Hodgkin's Lymphoma); assay: as above
How it was run: as §1

[8] = test system: HuCCT1 (Biliary Tract Carcinoma); assay: as above
How it was run: as §1

KS-1 (Glioblastoma) [9] = assay: as above
How it was run: as §1

[10] = test system: KYAE-1 (Esophageal Adenocarcinoma); assay: as above
How it was run: as §1

[11] = test system: LNZTA3WT4 (Low Grade Glioma); assay: as above
How it was run: as §1

LOXIMVI (Melanoma) [12] = assay: as above
How it was run: as §1

MPP-89 (Mesothelioma) [13] = assay: as above
How it was run: as §1

[14] = test system: NCI-H524 (Small Cell Lung Carcinoma); assay: as above
How it was run: as §1

[15] = test system: OVCAR-5 (Ovarian Carcinoma); assay: as above
How it was run: as §1

[16] = test system: SAS (Oral Cavity Carcinoma); assay: as above
How it was run: as §1

[17] = test system: SNU-16 (Gastric Carcinoma); assay: as above
How it was run: as §1

[18] = test system: SNU-449 (Hepatocellular Carcinoma); assay: as above
How it was run: as §1

[19] = test system: SW1710 (Bladder Carcinoma); assay: as above
How it was run: as §1

[20] = test system: TGBC1TKB (Biliary Tract Carcinoma); assay: as above
How it was run: as §1

[21] = test system: WSU-NHL (B-Cell Non-Hodgkin's Lymphoma); assay: as above
How it was run: as §1

[22] = test system: YAPC (Pancreatic Carcinoma); assay: as above
How it was run: as §1

A673 (Ewing's Sarcoma) [23] = assay: combination Emax (second highest fraction inhibited in the dose matrix, 72 h); higher = more inhibition; extreme values may be limits of the assay
How it was run: as §1

[24] = test system: BE-13 (T-Lymphoblastic Leukemia); assay: as above
How it was run: as §1

CAL-72 (Osteosarcoma) [25] = assay: as above
How it was run: as §1

[26] = test system: ESS-1 (Other Solid Carcinomas); assay: as above
How it was run: as §1

EW-11 (Ewing's Sarcoma) [27] = assay: as above
How it was run: as §1

GAMG (Glioblastoma) [28] = assay: as above
How it was run: as §1

[29] = test system: HH (T-Cell Non-Hodgkin's Lymphoma); assay: as above
How it was run: as §1

[30] = test system: HuCCT1 (Biliary Tract Carcinoma); assay: as above
How it was run: as §1

KS-1 (Glioblastoma) [31] = assay: as above
How it was run: as §1

[32] = test system: KYAE-1 (Esophageal Adenocarcinoma); assay: as above
How it was run: as §1

[33] = test system: LNZTA3WT4 (Low Grade Glioma); assay: as above
How it was run: as §1

LOXIMVI (Melanoma) [34] = assay: as above
How it was run: as §1

MPP-89 (Mesothelioma) [35] = assay: as above
How it was run: as §1

[36] = test system: NCI-H524 (Small Cell Lung Carcinoma); assay: as above
How it was run: as §1

[37] = test system: OVCAR-5 (Ovarian Carcinoma); assay: as above
How it was run: as §1

[38] = test system: SAS (Oral Cavity Carcinoma); assay: as above
How it was run: as §1

[39] = test system: SNU-16 (Gastric Carcinoma); assay: as above
How it was run: as §1

[40] = test system: SNU-449 (Hepatocellular Carcinoma); assay: as above
How it was run: as §1

[41] = test system: SW1710 (Bladder Carcinoma); assay: as above
How it was run: as §1

[42] = test system: TGBC1TKB (Biliary Tract Carcinoma); assay: as above
How it was run: as §1

[43] = test system: WSU-NHL (B-Cell Non-Hodgkin's Lymphoma); assay: as above
How it was run: as §1

[44] = test system: YAPC (Pancreatic Carcinoma); assay: as above
How it was run: as §1

[45] = test system: LS-123 (Colorectal Carcinoma); assay: Bliss excess, mean over the matrix (fraction); higher = more synergy
How it was run: as §1

[46] = test system: LS-123 (Colorectal Carcinoma); assay: combination Emax (second highest fraction inhibited in the dose matrix, 72 h); higher = more inhibition; extreme values may be limits of the assay
How it was run: as §1

CN(CCO)CC[C@H](CSc1ccccc1)Nc1ccc(S(=O)(=O)NC(=O)c2ccc(N3CCC([C@@H](O)c4ccccc4-c4ccc(Cl)cc4)CC3)cc2)cc1S(=O)(=O)C(F)(F)F [AZD4320] + Nc1ccn([C@@H]2O[C@H](CO)[C@@H](O)C2(F)F)c(=O)n1 [Gemcitabine] (first compound max 1 µM, 7x7, partner max 0.3 µM)
Bliss excess (A673 (Ewing's Sarcoma) [1]): 0.0335
Bliss excess [2]: -0.0285
Bliss excess (CAL-72 (Osteosarcoma) [3]): 0.129
Bliss excess [4]: 0.0278
Bliss excess (EW-11 (Ewing's Sarcoma) [5]): 0.0215
Bliss excess (GAMG (Glioblastoma) [6]): 0.103
Bliss excess [7]: -0.0085
Bliss excess [8]: -0.0245
Bliss excess (KS-1 (Glioblastoma) [9]): -0.0337
Bliss excess [10]: 0.0074
Bliss excess [11]: -0.0125
Bliss excess (LOXIMVI (Melanoma) [12]): 0.021
Bliss excess (MPP-89 (Mesothelioma) [13]): 0.0268
Bliss excess [14]: -0.0216
Bliss excess [15]: -0.0486
Bliss excess [16]: 0.0374
Bliss excess [17]: 0.0538
Bliss excess [18]: -0.0558
Bliss excess [19]: -0.0401
Bliss excess [20]: -0.0139
Bliss excess [21]: -0.0505
Bliss excess [22]: 0.011
combination Emax (A673 (Ewing's Sarcoma) [23]): 0.995
combination Emax [24]: 1
combination Emax (CAL-72 (Osteosarcoma) [25]): 0.854
combination Emax [26]: 0.998
combination Emax (EW-11 (Ewing's Sarcoma) [27]): 0.92
combination Emax (GAMG (Glioblastoma) [28]): 0.889
combination Emax [29]: 0.293
combination Emax [30]: 0.476
combination Emax (KS-1 (Glioblastoma) [31]): 0.304
combination Emax [32]: 0.32
combination Emax [33]: 0.608
combination Emax (LOXIMVI (Melanoma) [34]): 0.925
combination Emax (MPP-89 (Mesothelioma) [35]): 0.78
combination Emax [36]: 0.906
combination Emax [37]: 0.633
combination Emax [38]: 0.983
combination Emax [39]: 0.934
combination Emax [40]: 0.367
combination Emax [41]: 0.51
combination Emax [42]: 0.408
combination Emax [43]: 0.995
combination Emax [44]: 0.535

Cc1c2c(nn1C)CSCc1cc(n(C)n1)CSc1cc(c3ccccc3c1)OCCCc1c(C(=O)O)n(C)c3c-2c(Cl)ccc13 [AZD5991] + CS(=O)(=O)CCNCc1ccc(-c2ccc3ncnc(Nc4ccc(OCc5cccc(F)c5)c(Cl)c4)c3c2)o1 [Lapatinib] (first compound max 1 µM, 7x7, partner max 10 µM)
Bliss excess (A673 (Ewing's Sarcoma) [1]): 0.0006
Bliss excess [2]: 0.0363
Bliss excess (CAL-72 (Osteosarcoma) [3]): 0.0088
Bliss excess [4]: 0.0292
Bliss excess (EW-11 (Ewing's Sarcoma) [5]): -0.0014
Bliss excess (GAMG (Glioblastoma) [6]): 0.0088
Bliss excess [7]: -0.0635
Bliss excess [8]: 0.0065
Bliss excess (KS-1 (Glioblastoma) [9]): -0.0277
Bliss excess [10]: 0.0569
Bliss excess [11]: 0.0355
Bliss excess (LOXIMVI (Melanoma) [12]): 0.017
Bliss excess [45]: -0.0106
Bliss excess (MPP-89 (Mesothelioma) [13]): -0.0088
Bliss excess [14]: -0.0908
Bliss excess [15]: -0.0071
Bliss excess [16]: -0.0208
Bliss excess [17]: -0.0003
Bliss excess [18]: 0.0212
Bliss excess [19]: -0.0639
Bliss excess [20]: -0.0463
Bliss excess [21]: -0.0347
Bliss excess [22]: -0.0084
combination Emax (A673 (Ewing's Sarcoma) [23]): 0.388
combination Emax [24]: 0.936
combination Emax (CAL-72 (Osteosarcoma) [25]): 0.83
combination Emax [26]: 0.702
combination Emax (EW-11 (Ewing's Sarcoma) [27]): 0.572
combination Emax (GAMG (Glioblastoma) [28]): 0.507
combination Emax [29]: 0.868
combination Emax [30]: 0.482
combination Emax (KS-1 (Glioblastoma) [31]): 0.147
combination Emax [32]: 0.84
combination Emax [33]: 0.447
combination Emax (LOXIMVI (Melanoma) [34]): 0.535
combination Emax [46]: 0.394
combination Emax (MPP-89 (Mesothelioma) [35]): 0.312
combination Emax [36]: 0.502
combination Emax [37]: 0.334
combination Emax [38]: 0.485
combination Emax [39]: 0.998
combination Emax [40]: 0.547
combination Emax [41]: 0.185
combination Emax [43]: 0.909
combination Emax [44]: 0.186

CN(CCO)CC[C@H](CSc1ccccc1)Nc1ccc(S(=O)(=O)NC(=O)c2ccc(N3CCC([C@@H](O)c4ccccc4-c4ccc(Cl)cc4)CC3)cc2)cc1S(=O)(=O)C(F)(F)F [AZD4320] + CS(=O)(=O)CCNCc1ccc(-c2ccc3ncnc(Nc4ccc(OCc5cccc(F)c5)c(Cl)c4)c3c2)o1 [Lapatinib] (first compound max 1 µM, 7x7, partner max 10 µM)
Bliss excess (A673 (Ewing's Sarcoma) [1]): 0.0505
Bliss excess [2]: 0.0292
Bliss excess (CAL-72 (Osteosarcoma) [3]): -0.0174
Bliss excess [4]: 0.0668
Bliss excess (EW-11 (Ewing's Sarcoma) [5]): 0.0342
Bliss excess (GAMG (Glioblastoma) [6]): 0.1
Bliss excess [7]: 0.0112
Bliss excess [8]: -0.0052
Bliss excess (KS-1 (Glioblastoma) [9]): 0.0137
Bliss excess [10]: 0.0699
Bliss excess [11]: 0.0677
Bliss excess (LOXIMVI (Melanoma) [12]): 0.0113
Bliss excess (MPP-89 (Mesothelioma) [13]): 0.0479
Bliss excess [14]: 0.0798
Bliss excess [15]: -0.0031
Bliss excess [16]: 0.0214
Bliss excess [17]: 0.0399
Bliss excess [18]: 0.021
Bliss excess [19]: -0.0324
Bliss excess [20]: 0.0019
Bliss excess [21]: 0.0183
Bliss excess [22]: -0.0148
combination Emax (A673 (Ewing's Sarcoma) [23]): 0.973
combination Emax [24]: 1
combination Emax (CAL-72 (Osteosarcoma) [25]): 0.933
combination Emax [26]: 0.973
combination Emax (EW-11 (Ewing's Sarcoma) [27]): 0.95
combination Emax (GAMG (Glioblastoma) [28]): 0.951
combination Emax [29]: 0.316
combination Emax [30]: 0.615
combination Emax (KS-1 (Glioblastoma) [31]): 0.475
combination Emax [32]: 0.97
combination Emax [33]: 0.398
combination Emax (LOXIMVI (Melanoma) [34]): 0.64
combination Emax (MPP-89 (Mesothelioma) [35]): 0.746
combination Emax [36]: 0.968
combination Emax [37]: 0.896
combination Emax [38]: 0.525
combination Emax [39]: 0.941
combination Emax [40]: 0.694
combination Emax [41]: 0.553
combination Emax [42]: 0.58
combination Emax [43]: 0.945
combination Emax [44]: 0.257
